Reference: patent US9814730B2 (FLAMINA HOLDING AG, priority 2013, dated 2017)

System: autocrine HCG production in adult cells
Assay: Inhibition of autocrine HCG production in adult cells (in vitro experiments)
Type: cell-based, human
Settings: very low amount of active agent
Description: Extrapolations of in vitro experiments indicate that already 0.1 mg to 2 mg per kg body weight and per year, preferably 0.5 mg to 1 mg per kg body weight and per year of the active agent are sufficient. However, as detailed below the dosage can be up to a factor 5 higher and can thus range between 0.1 mg to 10 mg per kg body weight and per year.

C/C=C\[C@]1(O)CC[C@H]2[C@@H]3CCC4=CC(=O)CCC4=C3[C@@H](c3ccc(N(C)C)cc3)C[C@@]21C [RU534, Aglepristone]
inhibition of autocrine HCG production: successfully achieved
